For seven molecules, IC50 results are on record in US8642643B2, “CXCR2 antagonists” (Sanofi, priority 2006, dated 2014).

In the test the target is T1, human CXCR2 (Homo sapiens, UniProt P25025).
T1 construct: expressed in transfected cells; host or cells: CHO-K1
T1 sequence (P25025 1-360): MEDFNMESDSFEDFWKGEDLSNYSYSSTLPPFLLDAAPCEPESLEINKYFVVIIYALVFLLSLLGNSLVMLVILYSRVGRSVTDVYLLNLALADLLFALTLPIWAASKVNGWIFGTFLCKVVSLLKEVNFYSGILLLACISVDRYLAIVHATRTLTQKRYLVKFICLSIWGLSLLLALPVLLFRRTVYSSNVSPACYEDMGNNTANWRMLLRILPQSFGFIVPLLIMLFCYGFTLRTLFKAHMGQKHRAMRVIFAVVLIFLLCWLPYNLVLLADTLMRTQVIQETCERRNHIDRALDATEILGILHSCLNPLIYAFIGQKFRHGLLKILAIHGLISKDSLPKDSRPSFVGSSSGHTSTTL
Briefly: CXCR2 inhibition: calcium fluorescence assay (FLIPR). Type of test: cell-based. The settings on record: chemokine IL-8; CHO-K1 cells stably transfected with human CXCR2 and Gα16; calcium response (Fluo-4). The text has this: Determination of CXCR2 Inhibition: Calcium Fluorescence Assay (FLIPR)
The assay is based on the detection of intracellular calcium changes detected by the selective, calcium-chelating dye, Fluo-4 (Molecular Probes). A large fluorescence intensity increase is observed upon calcium association with Fluo-4. The dye is delivered to the cell interior using an acetoxymethylester form of Fluo-4, where the intracellular esterase activity results in the charged species being released and trapped within the cytoplasm of the cell. […] By co-expressing the CXCR2 receptor and the promiscuous Gα16 protein, activation of this chemokine receptor is directed into this phospholipase C cascade resulting in intracellular calcium mobilization.
The CHO-K1 cells stably transfected with human CXCR2 and the promiscuous Gα16 protein were maintained in a log phase of growth at 37° C. and 5% CO2 in the following media: Iscove's, 10% FBS, 1× Penicillin-Streptomycin, 400 μg/ml G418 and 350 μg/ml Zeocin. Approximately 24-48 hours prior to the assay, 20,000-30,000 cells/well were plated onto a 96-well black/clear bottomed assay plate (Becton Dickinson) with a well volume of 180 μl. For dye loading the culture medium was carefully removed and replaced by 100 μl/well dye solution (4 μM Fluo-4 in 135 mM NaCl, 5 mM KCl, 1 mM magnesium sulphate, 5 mM glucose, 20 mM hepes, 2.5 mM probenecid; pH 7.4). Cells were incubated for 1 h at 37° C., and then washed 3× with buffer. After washing 90 μl buffer/well were left. Increasing concentrations of compound was added in 45 μl buffer (4× concentrated) followed by 10 min incubation at 37° C. Then the chemokine (10-100 nM) was applied in 45 μl buffer (4× concentrated) and the measurement performed for 2 min. The IC50 value of a compound was determined by calculation of % inhibition of total calcium response to the chemokine.

Consider `Cc1cc(C(=O)NC(C)(C)C(=O)O)c(OCc2ccc(C(F)(F)F)cc2)c2c1CCC2` [Example 11, 2-Methyl-2-{[7-methyl-4-(4-trifluoromethyl-benzyloxy)-indane-5-carbonyl]-amino}-propionic acid], for which the concentration for half-maximal inhibition (IC50) (in general, the concentration that inhibits the measured activity by half) came to 1.6 µM. For `CC(C)(NC(=O)c1ccc2sccc2c1OCc1ccc(C(F)(F)F)cc1)C(=O)O` [Example 13, 2-Methyl-2-{[4-(4-trifluoromethyl-benzyloxy)-benzo[b]thiophene-5-carbonyl]-amino}-propionic acid], the half-inhibitory concentration (IC50) was found to be 1.1 µM.

Turning to `CC(C)(NC(=O)c1ccc2c(c1OCc1ccc(C(F)(F)F)cc1F)CCCC2)C(=O)O` [Example 8, 2-{[1-(2-Fluoro-4-trifluoromethyl-benzyloxy)-5,6,7,8-tetrahydro-naphthalene-2-carbonyl]-amino}-2-methyl-propionic acid], the IC50 turned out to be 1.8 µM. For the molecule `CC(C)(NC(=O)c1ccc2ccsc2c1OCc1ccc(C(F)(F)F)cc1)C(=O)O` [Example 12, 2-Methyl-2-{[7-(4-trifluoromethyl-benzyloxy)-benzo[b]thiophene-6-carbonyl]-amino}-propionic acid], the IC50 worked out at 0.7 µM. On to `CCC(C)(NC(=O)c1ccc2c(c1OCc1ccc(OC(F)(F)F)cc1)CCCC2)C(=O)O` (stereo not shown) [Example 9, 2-Methyl-2-{[1-(4-trifluoromethoxy-benzyloxy)-5,6,7,8-tetrahydro-naphthalene-2-carbonyl]-amino}-butyric acid], for which the concentration for half-maximal inhibition (IC50) is 1.5 µM. Turning to `CCC(C)(NC(=O)c1ccc2c(c1OCc1nc3ccccc3s1)CCCC2)C(=O)O` (stereo not shown) [Example 5, 2-{[1-(Benzothiazol-2-ylmethoxy)-5,6,7,8-tetrahydro-naphthalene-2-carbonyl]-amino}-2-methyl-butyric acid], the IC50 turned out to be 0.4 µM. With `CC(C)(NC(=O)c1ccc2c(c1OCc1nc3ccccc3s1)CCCC2)C(=O)O` [Example 2, 2-{[1-(Benzothiazol-2-ylmethoxy)-5,6,7,8-tetrahydro-naphthalene-2-carbonyl]-amino}-2-methyl-propionic acid], the IC50 worked out at 0.6 µM.
